Assay [1] deals with Pseudomonas aeruginosa. Description: Ratio of Kcat to Km for Pseudomonas aeruginosa strain PS 297 metallo-beta-lactamase IMP18 expressed in Escherichia coli BL21(DE3) assessed as substrate hydrolysis using 100 uM nitrocefin.
Assay [2] concerns Pseudomonas aeruginosa. In words: Activity of Pseudomonas aeruginosa strain PS 297 metallo-beta-lactamase IMP-1 expressed in Escherichia coli BL21(DE3) assessed as substrate hydrolysis using 100 uM nitrocefin.
The subject of assay [3] is Pseudomonas aeruginosa. Description: Ratio of Kcat to Km for Pseudomonas aeruginosa strain PS 297 metallo-beta-lactamase IMP-1 expressed in Escherichia coli BL21(DE3) assessed as substrate hydrolysis using 100 uM nitrocefin.
Assay [4] concerns Pseudomonas aeruginosa. In words: Activity of Pseudomonas aeruginosa strain PS 297 metallo-beta-lactamase IMP-18 expressed in Escherichia coli BL21(DE3) assessed as substrate hydrolysis using 100 uM nitrocefin.
For assay [5], the system named is Escherichia coli. Description: Antimicrobial activity against Escherichia coli DH5alpha carrying empty pBC-SK after 18 hrs by microdilution broth method. Type of assay: functional. To be noted: DH5[alpha].
The test system of assay [6] is Escherichia coli. Description: Antimicrobial activity against Escherichia coli DH5alpha carrying Pseudomonas aeruginosa strain PS 297 IMP-18-pLBII after 18 hrs by microdilution broth method. Type of assay: functional. As to conditions: DH5[alpha]. (In general: Broth dilution looks for growth in wells or tubes with falling amounts of substance.)
In assay [7] the test system is Escherichia coli. In words: Antimicrobial activity against Escherichia coli DH5alpha carrying Pseudomonas aeruginosa strain PS 297 IMP-1-pLBII after 18 hrs by microdilution broth method. Type of assay: functional. As to conditions: DH5[alpha].

The source of these data is ChEMBL document CHEMBL1687833, “Genetic context and biochemical characterization of the IMP-18 metallo-beta-lactamase identified in a Pseudomonas aeruginosa isolate from the United States” (2011).

The structures appear in SMILES notation. Values after ≈ are worked out from the molar mass of the structure shown. Bounds are passed on as bounds.

The Km is the concentration of substrate that gives half-maximal velocity. The kcat is the maximal rate divided by the concentration of active sites. In the case of `CC1(C)S[C@@H]2[C@H](NC(=O)Cc3ccccc3)C(=O)N2[C@H]1C(=O)O`, the kcat/Km with Pseudomonas aeruginosa [1] and with Pseudomonas aeruginosa [3] was 6.2 ×10⁵ /M/s in each case. Also, the Michaelis constant (Km) came out at 520 µM with Pseudomonas aeruginosa [2] and 90 µM in the assay with Pseudomonas aeruginosa [4]. Also, the kcat in the assay with Pseudomonas aeruginosa [2] was found to be 320 s⁻¹; with Pseudomonas aeruginosa [4], 54 s⁻¹.

For orientation: MIC means the least concentration at which growth counts as inhibited. A low value points to greater potency. On to `CCN1CCN(C(=O)N[C@@H](C(=O)N[C@@H]2C(=O)N3[C@@H]2SC(C)(C)[C@@H]3C(=O)O)c2ccccc2)C(=O)C1=O` [PIPERACILLIN], for which the kcat/Km in the assay with Pseudomonas aeruginosa [1] was 5.1 ×10⁴ /M/s; with Pseudomonas aeruginosa [3], 7.2 ×10⁵ /M/s. Besides, the MIC against Escherichia coli [5], with Escherichia coli [6] and with Escherichia coli [7] was 1 µg/mL (≈ 1.93 µM) each time. Further, the Km in the assay on Pseudomonas aeruginosa [4] was above 200 µM. Besides, the kcat with Pseudomonas aeruginosa [4] is above 10 s⁻¹.

For the compound `O=C(Cc1cccs1)N[C@@H]1C(=O)N2C(C(=O)O)=C(/C=C/c3ccc([N+](=O)[O-])cc3[N+](=O)[O-])CS[C@H]12`, the kcat/Km is 6.1 ×10⁶ /M/s in the assay on Pseudomonas aeruginosa [1] and 2.3 ×10⁶ /M/s with Pseudomonas aeruginosa [3]. The Km with Pseudomonas aeruginosa [2] came out at 27 µM; in the assay with Pseudomonas aeruginosa [4] it was 9 µM. Further, the kcat was 63 s⁻¹ with Pseudomonas aeruginosa [2] and 55 s⁻¹ with Pseudomonas aeruginosa [4].

Turning to `C[C@@H](O)[C@H]1C(=O)N2C(C(=O)O)=C(S[C@@H]3CN[C@H](C(=O)Nc4cccc(C(=O)O)c4)C3)[C@H](C)[C@H]12`, the kcat/Km in the assay with Pseudomonas aeruginosa [1] amounted to 1.2 ×10⁴ /M/s; with Pseudomonas aeruginosa [3] it was 7.6 ×10⁵ /M/s. In addition, the Km in the assay on Pseudomonas aeruginosa [2] came out at 21 µM; in the assay on Pseudomonas aeruginosa [4], 2.6 µM. Further, the values for the kcat in the assay on Pseudomonas aeruginosa [2] and with Pseudomonas aeruginosa [4] were 16 s⁻¹ and 0.03 s⁻¹, respectively. The MIC was at most 0.015 µg/mL against Escherichia coli [5], 0.12 µg/mL (≈ 0.252 µM) in the assay on Escherichia coli [6] and 2 µg/mL (≈ 4.21 µM) in the assay with Escherichia coli [7].

Turning to `CO[C@@]1(NC(=O)C2SC(=C(C(N)=O)C(=O)O)S2)C(=O)N2C(C(=O)O)=C(CSc3nnnn3C)CS[C@@H]21` (stereo partly specified) [CEFOTETAN], the MIC in the assay with Escherichia coli [5] was 0.25 µg/mL (≈ 0.434 µM); against Escherichia coli [6] it was 32 µg/mL (≈ 55.6 µM); against Escherichia coli [7] it was above 32 µg/mL.

As for `C[C@@H](O)[C@H]1C(=O)N2C(C(=O)O)=C(S[C@@H]3CN[C@H](C(=O)N(C)C)C3)[C@H](C)[C@H]12` [MEROPENEM], the kcat/Km in the assay on Pseudomonas aeruginosa [1] is 6 ×10³ /M/s; with Pseudomonas aeruginosa [3], 5 ×10⁵ /M/s. The MIC is at most 0.015 µg/mL against Escherichia coli [5], 0.06 µg/mL (≈ 0.156 µM) in the assay on Escherichia coli [6] and 2 µg/mL (≈ 5.22 µM) with Escherichia coli [7]. For the same compound, the Km with Pseudomonas aeruginosa [4] amounted to 8.4 µM. For the same compound, the kcat in the assay on Pseudomonas aeruginosa [4] turned out to be 0.05 s⁻¹.

Turning to `CO/N=C(\C(=O)N[C@@H]1C(=O)N2C(C(=O)O)=C(CSc3nc(=O)c(O)nn3C)CS[C@H]12)c1csc(N)n1` [CEFTRIAXONE], the values for the MIC against Escherichia coli [5], with Escherichia coli [6] and in the assay on Escherichia coli [7] were 0.25 µg/mL (≈ 0.451 µM), 4 µg/mL (≈ 7.21 µM) and 8 µg/mL (≈ 14.4 µM), respectively.

As to `CO/N=C(\C(=O)N[C@@H]1C(=O)N2C(C(=O)[O-])=C(C[N+]3(C)CCCC3)CS[C@H]12)c1csc(N)n1`, the kcat/Km is 4.4 ×10⁵ /M/s in the assay with Pseudomonas aeruginosa [1] and 6.6 ×10⁵ /M/s in the assay on Pseudomonas aeruginosa [3]. In addition, the Km is 11 µM with Pseudomonas aeruginosa [2] and 0.8 µM with Pseudomonas aeruginosa [4]. Moreover, the kcat in the assay on Pseudomonas aeruginosa [2] worked out at 7 s⁻¹; in the assay with Pseudomonas aeruginosa [4], 0.35 s⁻¹. Further, the MIC in the assay on Escherichia coli [5] came out at 0.25 µg/mL (≈ 0.52 µM); with Escherichia coli [7], 4 µg/mL (≈ 8.32 µM).

Take `CC1(C)S[C@@H]2[C@H](NC(=O)[C@H](C(=O)O)c3ccsc3)C(=O)N2[C@H]1C(=O)O` [TICARCILLIN]: the values for the kcat/Km in the assay on Pseudomonas aeruginosa [1] and in the assay with Pseudomonas aeruginosa [3] were 1.5 ×10⁵ /M/s and 1.5 ×10³ /M/s, respectively. Further, the Km with Pseudomonas aeruginosa [2] was 740 µM; with Pseudomonas aeruginosa [4], 180 µM. Besides, the kcat in the assay on Pseudomonas aeruginosa [2] came out at 1.1 s⁻¹; in the assay with Pseudomonas aeruginosa [4] it was 30 s⁻¹. Also, the MIC was determined as 8 µg/mL (≈ 20.8 µM) in the assay on Escherichia coli [5], 256 µg/mL (≈ 666 µM) against Escherichia coli [6] and 512 µg/mL (≈ 1330 µM) in the assay with Escherichia coli [7].

Consider `C[C@H]1[C@H](NC(=O)/C(=N\OC(C)(C)C(=O)O)c2csc(N)n2)C(=O)N1S(=O)(=O)O` [AZTREONAM], for which, in the assay with Pseudomonas aeruginosa [2], the Km is above 1000 µM and the kcat is below 0.01 s⁻¹. Moreover, in the assay on Pseudomonas aeruginosa [4], the Km is above 1000 µM and the kcat was below 0.01 s⁻¹.

As for `CC(=O)OCC1=C(C(=O)O)N2C(=O)[C@@H](NC(=O)Cc3cccs3)[C@H]2SC1` [CEPHALOTHIN], the kcat/Km with Pseudomonas aeruginosa [1] came out at 4 ×10⁶ /M/s; in the assay on Pseudomonas aeruginosa [3], 2.4 ×10⁶ /M/s. For the same compound, the Km turned out to be 21 µM in the assay with Pseudomonas aeruginosa [2] and 0.1 µM in the assay on Pseudomonas aeruginosa [4]. Moreover, the figures for the minimal inhibitory concentration (MIC) against Escherichia coli [5], against Escherichia coli [6] and against Escherichia coli [7] were 4 µg/mL (≈ 10.1 µM), 32 µg/mL (≈ 80.7 µM) and 256 µg/mL (≈ 646 µM), respectively. Besides, the kcat in the assay on Pseudomonas aeruginosa [4] was 0.4 s⁻¹.

For the compound `CO/N=C(\C(=O)N[C@@H]1C(=O)N2C(C(=O)O)=C(COC(N)=O)CS[C@H]12)c1ccco1` [CEFUROXIME], the kcat/Km in the assay on Pseudomonas aeruginosa [1] worked out at 1.3 ×10⁵ /M/s. Moreover, the results for the MIC with Escherichia coli [5], against Escherichia coli [6] and in the assay with Escherichia coli [7] were 4 µg/mL (≈ 9.43 µM), 64 µg/mL (≈ 151 µM) and 128 µg/mL (≈ 302 µM), respectively. In addition, the Km in the assay with Pseudomonas aeruginosa [4] was 7 µM. Further, the turnover number (kcat) in the assay on Pseudomonas aeruginosa [4] was determined as 0.9 s⁻¹.

Consider `CC1(C)S[C@@H]2[C@H](NC(=O)[C@H](N)c3ccccc3)C(=O)N2[C@H]1C(=O)O` [AMPICILLIN], for which the kcat/Km is 6.3 ×10⁵ /M/s with Pseudomonas aeruginosa [1] and 4.8 ×10⁶ /M/s in the assay on Pseudomonas aeruginosa [3]. In addition, the Michaelis constant (Km) was found to be 200 µM in the assay on Pseudomonas aeruginosa [2] and 103 µM with Pseudomonas aeruginosa [4]. Also, the kcat in the assay on Pseudomonas aeruginosa [2] is 950 s⁻¹; with Pseudomonas aeruginosa [4], 65 s⁻¹. The values for the MIC with Escherichia coli [5], in the assay with Escherichia coli [6] and in the assay on Escherichia coli [7] were 4 µg/mL (≈ 11.4 µM), 64 µg/mL (≈ 183 µM) and 256 µg/mL (≈ 733 µM), respectively.

`CO[C@@]1(NC(=O)Cc2cccs2)C(=O)N2C(C(=O)O)=C(COC(N)=O)CS[C@@H]21` [CEFOXITIN]: the minimum inhibitory concentration (MIC) with Escherichia coli [5] is 4 µg/mL (≈ 9.36 µM); with Escherichia coli [6], 256 µg/mL (≈ 599 µM); in the assay with Escherichia coli [7], above 256 µg/mL.

For `C[C@@H](O)[C@H]1C(=O)N2C(C(=O)O)=C(SCCNC=N)C[C@H]12` [IMIPENEM ANHYDROUS], the kcat/Km in the assay on Pseudomonas aeruginosa [1] amounted to 2.4 ×10⁶ /M/s; in the assay on Pseudomonas aeruginosa [3], 1.2 ×10⁶ /M/s. Further, the values for the Km in the assay with Pseudomonas aeruginosa [2] and with Pseudomonas aeruginosa [4] were 39 µM and 7 µM, respectively. Also, the kcat with Pseudomonas aeruginosa [2] is 46 s⁻¹; with Pseudomonas aeruginosa [4] it was 17 s⁻¹. This compound gave an MIC in the assay on Escherichia coli [7] of 2 µg/mL (≈ 6.68 µM).

Turning to `CO/N=C(\C(=O)N[C@@H]1C(=O)N2C(C(=O)O)=C(COC(C)=O)CS[C@H]12)c1csc(N)n1` [CEFOTAXIME], the values for the kcat/Km with Pseudomonas aeruginosa [1] and in the assay with Pseudomonas aeruginosa [3] were 2.3 ×10⁵ /M/s and 3.5 ×10⁵ /M/s, respectively. Further, the Michaelis-Menten constant (Km) turned out to be 4 µM with Pseudomonas aeruginosa [2] and 3 µM with Pseudomonas aeruginosa [4]. For the same compound, the kcat in the assay on Pseudomonas aeruginosa [2] came out at 1.3 s⁻¹; with Pseudomonas aeruginosa [4], 0.7 s⁻¹. Further, the minimum inhibitory concentration (MIC) with Escherichia coli [5] was 0.25 µg/mL (≈ 0.549 µM); in the assay on Escherichia coli [6], 32 µg/mL (≈ 70.3 µM); in the assay on Escherichia coli [7], 8 µg/mL (≈ 17.6 µM).

As to `CO[C@@]1(NC(=O)C(C(=O)O)c2ccsc2)C(=O)N2[C@@H](C(=O)O)C(C)(C)S[C@@H]21` (stereo partly specified) [TEMOCILLIN], the kcat/Km in the assay on Pseudomonas aeruginosa [1] was 7.5 ×10² /M/s; with Pseudomonas aeruginosa [3], below 100 M⁻¹ s⁻¹. The Km was above 2000 µM with Pseudomonas aeruginosa [2] and above 1000 µM in the assay with Pseudomonas aeruginosa [4]. Further, the MIC in the assay with Escherichia coli [5] came to 16 µg/mL (≈ 38.6 µM); with Escherichia coli [6] it was 16 µg/mL (≈ 38.6 µM); against Escherichia coli [7], 32 µg/mL (≈ 77.2 µM). In the assay with Pseudomonas aeruginosa [4], the kcat is above 0.75 s⁻¹.

Consider `CC(C)(O/N=C(\C(=O)N[C@@H]1C(=O)N2C(C(=O)[O-])=C(C[n+]3ccccc3)CS[C@H]12)c1csc(N)n1)C(=O)O` [CEFTAZIDIME], for which the kcat/Km in the assay on Pseudomonas aeruginosa [1] is 7.7 ×10⁵ /M/s; in the assay with Pseudomonas aeruginosa [3], 1.8 ×10⁵ /M/s. The Km with Pseudomonas aeruginosa [2] worked out at 44 µM; in the assay on Pseudomonas aeruginosa [4], 1.3 µM. Moreover, the kcat was determined as 8 s⁻¹ in the assay on Pseudomonas aeruginosa [2] and 1 s⁻¹ in the assay on Pseudomonas aeruginosa [4]. Moreover, the MIC was 0.25 µg/mL (≈ 0.457 µM) against Escherichia coli [5], 32 µg/mL (≈ 58.5 µM) against Escherichia coli [6] and 32 µg/mL (≈ 58.5 µM) against Escherichia coli [7].
